The results in this text go back to patent publication US20230348376A1 (TEIJIN PHARMA LIMITED, priority 2020, published 2023).

The subject of assay [1] is rat oligodendrocyte progenitor cells. Briefly: Promotive activity of rat oligodendrocyte progenitor cell differentiation-1 (MBP gene expression, mRNA). Format: cell-based. The conditions noted are these: Rattus norvegicus, Oligodendrocyte progenitor cell, 96 h, read-out: promotive activity at T3 base (MBP gene expression; DMSO 0%, T3 100%), 4 days, MBP/β actin mRNA. In short, it runs like this: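 Primary OPCs from 1-day-old SD rat forebrain, isolated by shaking off mixed glial cultures and seeded at 2×10^3 cells/well in B27/CNTF (10 ng/mL) differentiation medium with compound. MBP mRNA measured by one-step TaqMan real-time PCR and expressed as MBP/β-actin ratio.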

In assay [2] the test system is mouse cuprizone model. Briefly: Myelin regeneration promoting action in mouse cuprizone model (LFB staining of corpus callosum). Format: in vivo. The conditions noted are these: 20 μg/kg oral once a day, 4 weeks after 6 weeks cuprizone diet; untreated = 100%. The text has this: C57BL/6J mice (8 weeks old, male) were fed a diet containing 0.3% cuprizone (bis(cyclohexanone)oxaldihydrazone) (Research Diets, Inc. #D17042709) for 6 weeks to induce demyelination. Subsequently, the mice were divided into groups of 8 mice based on the body weight, the diet was switched to a cuprizone-free diet (Research Diets, Inc. #D10001), and administration of the test compound or vehicle was started. […] After administration of 4 weeks, the mice were euthanized, perfused with a 4% paraformaldehyde solution, and then brain sampling was performed. The brain sample obtained was embedded in paraffin to prepare a coronal section specimen at Bregma+1. The specimen was stained with Luxor Fast Blue (LFB) to visualize the myelin sheath, and images were acquired using a fluorescence microscope (KEYENCE #BZ-X710). The corpus callosum area and the LFB staining positive area in the corpus callosum of the obtained pathological specimen image were measured using an image analysis application (KEYENCE #BZ-H3C/BZ-H3XD), and the ratio (LFB staining positive area in the corpus callosum/corpus callosum area) was calculated. The intact group is a non-pathogenic group, and the […] control group were sampled after feeding the diet containing 0.3% cuprizone for 6 weeks.
In the table, the ratio of LFB staining positive area in the corpus callosum/corpus callosum area of the untreated group, fed with the cuprizone-free diet for 6 weeks, was regarded as 100%. As a result, the control group, fed with the cuprizone-containing diet for 6 weeks, decreased the ratio to 23.6%, and was confirmed to progress demyelination. The group, in which the cuprizone-containing diet was fed for 6 weeks and switched to the cuprizone-free diet, and the vehicle was administered, improved the ratio of area of LFB staining positive/area of corpus callosum to 50.1%. […] In addition, GSK239512 described in WO2013/107336 pamphlet was evaluated in the test to show the ratio of LFB staining positive area/corpus callosum area of 45.8%, in which no demyelination regeneration promoting action was shown as compared with the vehicle-administered group.

As for `C[C@H](CCN1CCOCC1)[C@H]1CC[C@H]2/C(=C/C=C3C[C@@H](O)C[C@H](O)C3)CCC[C@]12C` [Compound D023, (1R,3R)-5-(2-((1R,3aS,7aR,E)-7a-methyl-1-((R)-4-morpholinobutan-2-yl)octahydro-4H-inden-4-ylidene)ethylidene)cyclohexane-1,3-diol], the activation at 1 µM in assay [1] is ≥ 20%. Further, in assay [2], the “Ratio (%): area of LFB staining positive/area of corpus callosum, mean” value was determined as 87.0%.
